Experimental data as given in patent US5736161A, “Pharmaceutical preparation for improving the bioavailability of drugs which are difficult to absorb and a procedure for obtaining it” (Lipotec S.A., priority 1993, dated 1998).

Columns and labels:
Xa = assay: Bioavailability test in dogs: anti-Xa activity in the plasma, ex-vivo chromogenic test (Coatest); set-up: species or system dog
Procedure: Bioavailability tests on the capsules prepared according to examples 1 and 2.
(§1) Bioavailability studies in which the animals received 40 mg of heparin by the oral route or 10 mg by the subcutaneous route over a period of three days.
(§2) Four dogs (2 for each treatment), each approximately 15 kg in weight.
A bioassay (anti-Xa activity) was used to measure the concentrations in the plasma.
The anti-Xa activity in the plasma was measured ex-vivo using a chromogenic test using a commercially available kit (Coatest) and expressed in IU/ml. The values were calculated from a calibration curve obtained in-vitro by adding different quantities of SLMWH to dog plasma.
The blood was extracted from the femoral vein. Starting on the second day of experiments samples were collected before and 1, 2, 3, 4 and 6 hours after oral or subcutaneous administration, sodium citrate was added to the samples (9 vol. sangre:1 vol. 3.8% sodium citrate) followed by centrifuging at 1200 rpm for 20 minutes at 4° C. The plasma was separated immediately and the anti-Xa activity was tested.

[1] = Urine analysis by proton NMR after chondroitinase AC treatment; type: in vivo, dog; conditions: chondroitinase AC treated, route not distinguished
Procedure: as §1, §2
(§3) The urine samples were treated with chondroitinase AC to eliminate the endogenous chondroitins. The residue was analyzed by means of proton NMR and HPLC (to determine the molecular weight).

[2] = Urine analysis by HPLC (molecular weight) after chondroitinase AC treatment; type: in vivo, dog; conditions: chondroitinase AC treated, route not distinguished
Procedure: as §1, §2, §3

[3] = oral, capsules (examples 1 and 2), 40 mg heparin, second day
[4] = subcutaneous, 10 mg heparin, second day

levels of heparin in the blood (anti-Xa activity method) (Xa; [3]): detectable
peak values of anti-Xa activity in plasma (Xa; [3]): 0.2-0.4 IU/ml
peak values of anti-Xa activity in plasma (Xa; oral, capsules (examples 1 and 2), 40 mg heparin, third day, 1 and 2 hours after administration): 0.8-1.2 IU/ml
significant anti-Xa activity in plasma after 6 hours (Xa; oral, capsules (examples 1 and 2), 40 mg heparin, third day): > 0.3 IU/ml
significant continued anti-Xa activity (>0.1 IU/ml) for 3 hours (Xa; oral, capsules, 40 mg heparin, second day, not found after oral): only after subcutaneous administration
levels of heparin in the blood (anti-Xa activity method) (Xa; subcutaneous injection, 10 mg heparin, second day): detectable
duration of significant continued anti-Xa activity (>0.1 IU/ml) in plasma (Xa; [4]): 3 h
peak values of anti-Xa activity in plasma (Xa; [4]): 0.2-0.4 IU/ml
significant continued anti-Xa activity in plasma (Xa; subcutaneous, 10 mg heparin, second day, for 3 hours): > 0.1 IU/ml
peak values of anti-Xa activity in plasma (Xa; subcutaneous, 10 mg heparin, third day, 1 and 2 hours after administration): 0.8-1.2 IU/ml
significant anti-Xa activity in plasma after 6 hours (Xa; subcutaneous, 10 mg heparin, third day): > 0.3 IU/ml
molecular weight of the urine residue (HPLC) [2]: 5 kDaltons
Substance: sodium heparin of low molecular weight [SLMWH]
basal values of anti-Xa activity before the final dose (Xa; third day vs previous day, oral or subcutaneous, route not distinguished): significantly higher than the corresponding values on the previous day
H1-NMR test of urine [1]: presence of partially disulphated heparin
